Data from ChEMBL document CHEMBL3763037 (J Med Chem, 2016).

Columns and labels:
[1] = biological target: Poly [ADP-ribose] polymerase 1 (Homo sapiens, UniProt P09874); test: Inhibition of human PARP1 using [3H]NAD as substrate after 1 min by microplate scintillation counting analysis
LoVo = test: cells; details: Homo sapiens, 120 h
PARP 1, 2 and 3 = PARP 1, 2 and 3 (Homo sapiens, UniProt P09874+Q9Y6F1+Q9UGN5); test: Inhibition of PARP in human LoVo cells assessed as inhibition of poly(ADP)-ribose polymerization for 30 mins by fluorescence assay; type: cell-based
[2] = Cytotoxicity against BRCA2-deficient human Capan1 cells; type: functional, cell-based, CAPAN-1
[3] = Half life in rat liver microsomes; type: ADME
[4] = AUC in Sprague-Dawley rat at 10 mg/kg, po by LC-MS/MS analysis; type: ADME, organism-based; details: Sprague-Dawley, in vivo
[5] = Volume of distribution at steady state in Sprague-Dawley rat at 5 mg/kg, iv by LC-MS/MS analysis; type: ADME, organism-based; details: in vivo, read-out: Vdss
[6] = Terminal eliminational half life in Sprague-Dawley rat at 5 mg/kg, iv by LC-MS/MS analysis; type: ADME, organism-based; details: Sprague-Dawley, in vivo, read-out: beta t1/2 (converted)
[7] = Clearance in Sprague-Dawley rat at 5 mg/kg, iv by LC-MS/MS analysis; type: ADME, organism-based; details: in vivo
[8] = Cmax in Sprague-Dawley rat at 10 mg/kg, po by LC-MS/MS analysis; type: ADME, organism-based; parameters: dose 10 mg/kg, route oral; details: in vivo
[9] = Oral bioavailability in Sprague-Dawley rat at 10 mg/kg by LC-MS/MS analysis; type: ADME, organism-based; details: Sprague-Dawley, in vivo
MRC5 = test: Cytotoxicity against human MRC5 cells; type: cell-based

Sequence of Poly [ADP-ribose] polymerase 1 (P09874 whole entry): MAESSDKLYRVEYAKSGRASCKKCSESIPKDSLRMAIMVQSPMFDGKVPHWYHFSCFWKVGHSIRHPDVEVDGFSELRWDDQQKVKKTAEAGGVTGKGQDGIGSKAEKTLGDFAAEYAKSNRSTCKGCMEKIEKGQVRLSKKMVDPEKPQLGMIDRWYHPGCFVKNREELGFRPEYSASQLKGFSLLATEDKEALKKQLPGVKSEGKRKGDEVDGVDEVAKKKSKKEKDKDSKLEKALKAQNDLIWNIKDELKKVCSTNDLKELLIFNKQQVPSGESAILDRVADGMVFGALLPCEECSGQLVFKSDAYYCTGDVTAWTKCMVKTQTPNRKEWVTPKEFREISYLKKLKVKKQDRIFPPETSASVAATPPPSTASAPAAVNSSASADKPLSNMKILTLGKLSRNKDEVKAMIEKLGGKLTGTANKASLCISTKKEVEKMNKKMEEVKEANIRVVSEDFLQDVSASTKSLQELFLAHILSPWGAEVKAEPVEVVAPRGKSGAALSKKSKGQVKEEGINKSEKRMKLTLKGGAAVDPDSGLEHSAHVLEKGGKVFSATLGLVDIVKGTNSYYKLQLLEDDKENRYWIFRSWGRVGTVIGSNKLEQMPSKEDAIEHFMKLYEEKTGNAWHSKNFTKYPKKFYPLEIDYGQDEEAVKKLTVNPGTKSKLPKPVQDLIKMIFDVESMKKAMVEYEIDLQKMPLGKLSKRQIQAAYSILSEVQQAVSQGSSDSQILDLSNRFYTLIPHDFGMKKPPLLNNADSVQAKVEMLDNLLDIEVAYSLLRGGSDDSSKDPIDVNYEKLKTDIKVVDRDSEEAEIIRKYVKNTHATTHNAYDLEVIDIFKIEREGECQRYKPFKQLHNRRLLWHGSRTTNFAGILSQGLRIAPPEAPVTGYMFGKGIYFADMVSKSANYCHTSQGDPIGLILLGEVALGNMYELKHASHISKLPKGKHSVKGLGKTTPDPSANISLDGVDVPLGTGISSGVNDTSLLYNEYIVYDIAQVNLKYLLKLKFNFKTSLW

IC50 [1] [nM] | GI50 (LoVo) [nM] | EC50 (PARP 1, 2 and 3) [nM] | half-life [3] [h] | Structure (SMILES) | EC50 ([2]; Homo sapiens, CAPAN-1) [nM] | further results
– | 1810 | – | – | Cn1ncnc1[C@@H]1c2n[nH]c(=O)c3cc(F)cc(c23)N[C@H]1c1ccc(F)cc1 | 1140 | –
1.84 | > 400000 | 9.33 | – | Cn1nccc1C1c2n[nH]c(=O)c3cc(F)cc(c23)NC1c1ccc(F)cc1 (centres undefined) | 956 | –
– | 19000 | – | 5.98 | Cn1ncnc1C1c2n[nH]c(=O)c3cc(F)cc(c23)NC1c1ccc(F)cc1 (centres undefined) | 8 | –
2.63 | 94000 | 6.1 | 1.37 | CN(C)Cc1ccc(C2Nc3cc(F)cc4c(=O)[nH]nc(c34)C2c2ccc(F)cc2)cc1 (centres undefined) | 134 | –
2.29 | 44000 | 6.94 | > 2 | Cn1ncnc1C1c2n[nH]c(=O)c3cccc(c23)NC1c1ccc(F)cc1 (centres undefined) | 71 | –
2.6 | 24000 | – | 7.87 | Cn1ncnc1C1c2n[nH]c(=O)c3cc(F)cc(c23)NC1c1ccccc1 (centres undefined) | 9 | –
2.08 | 75500 | 19.7 | > 2 | Cn1ccnc1C1c2n[nH]c(=O)c3cccc(c23)NC1c1ccc(F)cc1 (centres undefined) | 418 | –
2.08 | – | – | > 2 | CC(=O)Nc1ccc(C2Nc3cc(F)cc4c(=O)[nH]nc(c34)C2c2ncnn2C)cc1 (centres undefined) | 146 | –
1.46 | 41 | 5.1 | – | Cn1ncnc1[C@H]1c2n[nH]c(=O)c3cccc(c23)N[C@@H]1c1ccc(F)cc1 | 37 | AUC [4]: 39900 ng·h/mL; Vd [5]: 0.39 L/kg; half-life [6]: 2.44 h; clearance [7]: 2 mL/min/kg; Cmax [8]: 7770 ng/mL; bioavailability [9]: 47%
22.4 | 104 | 164 | – | Cn1ccnc1[C@@H]1c2n[nH]c(=O)c3cc(F)cc(c23)N[C@H]1c1ccc(F)cc1 | 124 | –
2.14 | 36300 | 18.1 | 1.72 | Cn1ccnc1C1c2n[nH]c(=O)c3cc(F)cc(c23)NC1c1ccccc1 (centres undefined) | 108 | –
136 | > 10000 | 285 | – | Cn1ccnc1[C@@H]1c2n[nH]c(=O)c3cccc(c23)N[C@H]1c1ccc(F)cc1 | 6310 | –
6.18 | 111000 | 121 | – | Cn1ccnc1C1c2n[nH]c(=O)c3cc(Cl)cc(c23)NC1c1ccccc1 (centres undefined) | 785 | –
5.27 | 192000 | 27.2 | – | Cn1ccnc1C1c2n[nH]c(=O)c3cccc(c23)NC1c1ccc(C(F)(F)F)cc1 (centres undefined) | 1100 | –
3.9 | – | – | – | Cn1ncnc1C1c2n[nH]c(=O)c3cc(F)cc(c23)NC1c1ccc(C#N)cc1 (centres undefined) | 88 | –
68.9 | 3260 | 250 | – | Cn1ncnc1[C@@H]1c2n[nH]c(=O)c3cccc(c23)N[C@H]1c1ccc(F)cc1 | 1880 | –
1.87 | 35700 | 17 | – | Cn1ccnc1C1c2n[nH]c(=O)c3cc(F)cc(c23)NC1c1ccc(F)cc1 (centres undefined) | 56 | –
2.25 | 261 | 6.9 | – | Cn1ccnc1[C@H]1c2n[nH]c(=O)c3cccc(c23)N[C@@H]1c1ccc(F)cc1 | 305 | AUC [4]: 36500 ng·h/mL; Vd [5]: 0.5 L/kg; half-life [6]: 2.3 h; clearance [7]: 4 mL/min/kg; Cmax [8]: 10500 ng/mL; bioavailability [9]: 91%

The remaining lines, values behind:

Structure (SMILES) | IC50 [1] [nM] | GI50 (LoVo) [nM] | EC50 (PARP 1, 2 and 3) [nM] | half-life [3] [h] | EC50 ([2]; Homo sapiens, CAPAN-1) [nM] | further results
CN(C)Cc1ccc(C2Nc3cccc4c(=O)[nH]nc(c34)C2c2ccc(C(F)(F)F)cc2)cc1 (centres undefined) | 6.29 | 94000 | 6.7 | – | 818 | –
O=c1[nH]nc2c3c(cccc13)NC(c1ccccn1)C2c1ccccn1 (centres undefined) | 108 | – | – | – | – | –
O=c1[nH]nc2c3c(cccc13)NC(c1cccnc1)C2c1cccnc1 (centres undefined) | 17.7 | – | – | – | – | –
Cn1ccnc1C1Nc2cccc3c(=O)[nH]nc(c23)C1c1ccccc1 (centres undefined) | 9.45 | > 400000 | – | – | – | –
CN(C)Cc1cccc(C2Nc3cccc4c(=O)[nH]nc(c34)C2c2ccccc2)c1 (centres undefined) | 2.63 | 128000 | – | – | – | –
CN(C)Cc1ccc(C2Nc3cccc4c(=O)[nH]nc(c34)C2c2ccccc2)cc1 (centres undefined) | 2.36 | 59000 | 6 | 0.2 | 387 | –
O=c1[nH]nc2c3c(cccc13)N[C@H](c1ccc(CN3CCC3)cc1)[C@H]2c1ccc(F)cc1 | 1.1 | 279 | 6.3 | – | 389 | AUC [4]: 914 ng·h/mL; Vd [5]: 4.5 L/kg; half-life [6]: 2.29 h; clearance [7]: 26 mL/min/kg; Cmax [8]: 126 ng/mL; bioavailability [9]: 14%
Cn1nccc1C1Nc2cc(F)cc3c(=O)[nH]nc(c23)C1c1ncnn1C (centres undefined) | 2.88 | – | – | – | 1920 | –
CN(C)Cc1ccc(C2c3n[nH]c(=O)c4cccc(c34)NC2c2ccccc2)cc1 (centres undefined) | 5.85 | 112000 | – | 0.1 | – | –
O=c1[nH]nc2c3c(cccc13)NC(c1ccc(CN3CCC3)cc1)C2c1ccccc1 (centres undefined) | 3.63 | 89000 | 9.7 | 0.133 | 434 | –
O=c1[nH]nc2c3c(cccc13)NC(c1ccc(CN3CCCC3)cc1)C2c1ccc(F)cc1 (centres undefined) | 2.02 | 134000 | 23 | 1.48 | 454 | –
Cc1ccc(C2c3n[nH]c(=O)c4cccc(c34)NC2c2ccc(CN(C)C)cc2)cc1 (centres undefined) | 1.95 | 123000 | 10.8 | 0.583 | 514 | –
CN(C)Cc1cccc(C2c3n[nH]c(=O)c4cccc(c34)NC2c2ccccc2)c1 (centres undefined) | 3.65 | 204000 | – | 0.183 | – | –
C[C@]1(c2nc3c(C(N)=O)cccc3[nH]2)CCCN1 [VELIPARIB] | – | 6200 | – | – | – | EC50 (MRC5; mrc5): > 10000 nM; EC50 ([2]; capan-1): > 10000 nM
Cn1ncnc1C1c2n[nH]c(=O)c3cccc(c23)NC1c1ccccc1 (centres undefined) | 2.4 | > 400000 | 149 | 6.9 | 170 | –
O=c1[nH]nc2c3c(cccc13)N[C@@H](c1ccc(CN3CCC3)cc1)[C@@H]2c1ccc(F)cc1 | 5.6 | 3570 | 11.8 | – | 2250 | –
CN(C)Cc1ccc(C2Nc3cc(F)cc4c(=O)[nH]nc(c34)C2c2ccccc2)cc1 (centres undefined) | 3.29 | 46000 | 8.48 | 0.0833 | 146 | –

Structure (SMILES) | IC50 [1] [nM] | GI50 (LoVo) [nM] | EC50 (PARP 1, 2 and 3) [nM] | half-life [3] [h] | EC50 ([2]; Homo sapiens, CAPAN-1) [nM] | further results
CN(C)Cc1ccc(C2Nc3cccc4c(=O)[nH]nc(c34)C2c2ccc(F)cc2)cc1 (centres undefined) | 2.48 | 76000 | 18.5 | 0.733 | 1730 | –
O=c1[nH]nc2c3c(cccc13)NC(c1cccnc1)C2C1CCCNC1 (centres undefined) | 105 | – | – | – | – | –
CC(C)C1c2n[nH]c(=O)c3cccc(c23)NC1c1ccccc1 (centres undefined) | 4140 | – | – | – | – | –
O=c1[nH]nc2c3c(cccc13)NC(c1ccc(CN3CCCC3)cc1)C2c1ccccc1 (centres undefined) | 4.02 | 90000 | 9.47 | 0.133 | 298 | –
CN1CCN(Cc2ccc(C3Nc4cccc5c(=O)[nH]nc(c45)C3c3ccccc3)cc2)CC1 (centres undefined) | 2.02 | 54600 | 40.6 | 0.317 | 603 | –
Cn1ccnc1C1Nc2cccc3c(=O)[nH]nc(c23)C1c1nccn1C (centres undefined) | 24.5 | – | – | – | – | –
Cn1ncnc1C1c2n[nH]c(=O)c3cc(F)cc(c23)NC1c1cncnc1 (centres undefined) | 7.62 | – | – | – | – | –
CNCc1ccc(-c2[nH]c3cc(F)cc4c3c2CCNC4=O)cc1 [RUCAPARIB] | – | 144 | – | – | – | EC50 (MRC5; Homo sapiens, MRC5): 8530 nM
O=c1[nH]nc2c3c(cccc13)NC(c1ccncc1)C2c1ccncc1 (centres undefined) | 22.4 | > 400000 | – | – | – | –
O=c1[nH]nc2c3c(cccc13)NC(c1ccc(F)cc1)C2c1nccs1 (centres undefined) | 7.35 | 106000 | 24.4 | – | – | –
NC(=O)c1cccc2cn(-c3ccc([C@@H]4CCCNC4)cc3)nc12 [NIRAPARIB] | – | – | – | – | 650 | –
O=c1[nH]nc2c3c(cccc13)NC(c1ccc(CN3CCC3)cc1)C2c1ccc(F)cc1 (centres undefined) | 3.09 | 95000 | 3.81 | 1.48 | 276 | –
CC(C)c1ccc(C2c3n[nH]c(=O)c4cccc(c34)NC2c2ccc(CN(C)C)cc2)cc1 (centres undefined) | 9.59 | 123000 | 15.2 | – | – | –
Cn1ccnc1C1c2n[nH]c(=O)c3cccc(c23)NC1c1ccccc1 (centres undefined) | 2.35 | 97000 | 16.9 | 1.48 | 360 | –
CN(C)Cc1ccc(C2Nc3cccc4c(=O)[nH]nc(c34)C2c2ccc(CN(C)C)cc2)cc1 (centres undefined) | 3.89 | 63000 | 18.6 | > 2 | 979 | –
O=c1[nH]nc2c3c(cccc13)NC(c1ccccc1)C2c1ccccc1 (centres undefined) | 6.1 | 324000 | 58.4 | – | 2970 | –
Cn1cnnc1C1c2n[nH]c(=O)c3cccc(c23)NC1c1ccccc1 (centres undefined) | 2.76 | > 400000 | – | – | 4340 | –
